How the values were obtained:
[1] = tested on: human melanoma cell line A2058; test: Melanoma invasion and metastasis in vivo, nude mice with subcutaneous A2058; details: oral gavage of bithionol-cyclodextrin suspension
Experimental: (§1) Nude mice were inoculated with human melanoma cell line A2058 subcutaneously in the right flank and observed until the tumor was palpable (about 5-8 days). The mice were then treated with oral gavage of a bithionol-cyclodextrin suspension (A-D) or a cyclodextrin suspension alone (E-H). […] Two of the untreated mice developed large tumors in the right hindquarter (cyan arrow, E) that grossly invaded the right gluteous maximus and could not be dissected without amputation (E&F). […] Of the remaining untreated mice, one developed a modest sized tumor with microscopic evidence of invasion, and a one developed a tumor without gross or microscopic evidence of invasive tumor.
as §1, with “The present invention was also tested in vivo. Nude” for “Nude”

[2] = oral, ref. [43]; cited from earlier work

Oc1c(Cl)cc(Cl)cc1Sc1cc(Cl)cc(Cl)c1O [Bithionol]
microscopic appearance of the tumors [1]: self-contained balls of tumor cells (C) with a pushing border
gross evidence of metastatic melanoma upon necropsy ([1]; 5 mice): lacked gross evidence of metastatic melanoma
dose that can be safely dosed in humans [2]: 25 mg kg^−1 body weight per day
